According to patent US10259810B2, “N-sulfonylated pyrazolo[3,4-b]pyridin-6-carboxamides and method of use” (AbbVie S.à.r.l., priority 2015, dated 2019):
Where two headings read alike, the source gives them in different places.

Molecular target: T1, ΔF508-CFTR (Homo sapiens, UniProt P13569, DEL508-508)
T1 construct: host or cells: CFBE41o-, doxycycline-inducible
Assay: CFTR cell surface levels using HRP-tagged ΔF508-CFTR expressing CFBE cells, in the presence of a co-corrector
Type: cell-based
Excerpt: Measuring CFTR Cell Surface Levels Using HRP-Tagged ΔF508-CFTR Expressing CFBE Cells
The HRP-tagged ΔF508-CFTR cell assay measures the expression of CFTR-ΔF508 at the plasma membrane. CFTR-ΔF508 has a folding defect leading to absence of protein at the plasma membrane. This assay is used to evaluate the capacity of compounds to increase the expression of CFTR-ΔF508 at the plasma membrane. The CFTR-ΔF508 is tagged with HRP (horse radish peroxidase enzyme) within the ECL4 (Extracellular loop 4) of CFTR (Phuan, P.-W. et al. Synergy-based small-molecule screen using a human lung epithelial cell line yields ΔF508-CFTR correctors that augment VX-809 maximal efficacy. Mol. Pharmacol. 86, 42-51 (2014)). When HRP-tagged ΔF508-CFTR is present at the plasma membrane, the HRP enzyme activity can be measured. The amount of CFTR-ΔF508 that can be rescued to the plasma membrane is correlated with the amount of functional enzyme that can be measured.
There are several ways to measure the capacity of compounds to rescue CFTR-ΔF508 to the plasma membrane; either compounds are evaluated on their own and the impact on plasma membrane levels is measured or compounds are evaluated in combination with a co-corrector, i.e. a compound that rescues CFTR-ΔF508 to the plasma membrane but rescue can be enhanced by addition of compounds due to a complementary mode of action.
Activity of Compounds in Combination with Co-Corrector:
For this purpose doxycycline-inducible ΔF508-CFTR-HRP expressing CFBE4lo− cells (obtained from Gergely Lukacs, McGill University) were maintained in MEM (Minimum Essential Medium, Gibco; 31095) supplemented with 10% fetal bovine serum (Hyclone; SV30160.03) under puromycin (3 μg/mL) and G418 selection (0.2 mg/mL). For compound testing, cells were seeded at 4000 cells/well in white 384-well plates (Greiner; 781080) in 50 μL of medium containing 0.5 μg/mL doxycycline and incubated for 68 hours at 37° C., 5% CO2. On day four, 10 μL of test compounds diluted in PBS (phosphate buffered saline) were added to the plates at a final DMSO concentration of 0.1%. In order to measure compound synergy with a co-corrector, 3 μM co-corrector (3-[(2R,4R)-4-({[1-(2,2-difluoro-1,3-benzodioxol-5-yl)cyclopropyl]carbonyl}amino)-7-methoxy-3,4-dihydro-2H-chromen-2-yl]benzoic acid) was added along with test compounds. All compound plates contained negative controls (DMSO) and positive controls (3 μM co-corrector). Cell plates were incubated at 33° C., 5% CO2 for 20 hours. On day five, the cells were washed five times with phosphate-buffered saline, and HRP activity was assayed by the addition of 50 μL/well of HRP substrate (SuperSignal™ West Pico Chemiluminescent Substrate, Thermo Scientific; 34080). After incubation for 15 minutes in the dark, the chemiluminescence was measured using a plate reader (EnVision®, Perkin Elmer). Raw data were normalized to percentage activity values using the equation: 100×(Sample−Negative control)/(Positive control−Negative Control).

[1] = HRP-tagged ΔF508-CFTR CFBE cells, in the presence of 3 μM co-corrector
[2] = HRP-tagged ΔF508-CFTR CFBE cells, in the presence of 3 μM co-corrector, read-out: EC50

T1 sequence (P13569 with tags, fused parts or gaps DEL508-508): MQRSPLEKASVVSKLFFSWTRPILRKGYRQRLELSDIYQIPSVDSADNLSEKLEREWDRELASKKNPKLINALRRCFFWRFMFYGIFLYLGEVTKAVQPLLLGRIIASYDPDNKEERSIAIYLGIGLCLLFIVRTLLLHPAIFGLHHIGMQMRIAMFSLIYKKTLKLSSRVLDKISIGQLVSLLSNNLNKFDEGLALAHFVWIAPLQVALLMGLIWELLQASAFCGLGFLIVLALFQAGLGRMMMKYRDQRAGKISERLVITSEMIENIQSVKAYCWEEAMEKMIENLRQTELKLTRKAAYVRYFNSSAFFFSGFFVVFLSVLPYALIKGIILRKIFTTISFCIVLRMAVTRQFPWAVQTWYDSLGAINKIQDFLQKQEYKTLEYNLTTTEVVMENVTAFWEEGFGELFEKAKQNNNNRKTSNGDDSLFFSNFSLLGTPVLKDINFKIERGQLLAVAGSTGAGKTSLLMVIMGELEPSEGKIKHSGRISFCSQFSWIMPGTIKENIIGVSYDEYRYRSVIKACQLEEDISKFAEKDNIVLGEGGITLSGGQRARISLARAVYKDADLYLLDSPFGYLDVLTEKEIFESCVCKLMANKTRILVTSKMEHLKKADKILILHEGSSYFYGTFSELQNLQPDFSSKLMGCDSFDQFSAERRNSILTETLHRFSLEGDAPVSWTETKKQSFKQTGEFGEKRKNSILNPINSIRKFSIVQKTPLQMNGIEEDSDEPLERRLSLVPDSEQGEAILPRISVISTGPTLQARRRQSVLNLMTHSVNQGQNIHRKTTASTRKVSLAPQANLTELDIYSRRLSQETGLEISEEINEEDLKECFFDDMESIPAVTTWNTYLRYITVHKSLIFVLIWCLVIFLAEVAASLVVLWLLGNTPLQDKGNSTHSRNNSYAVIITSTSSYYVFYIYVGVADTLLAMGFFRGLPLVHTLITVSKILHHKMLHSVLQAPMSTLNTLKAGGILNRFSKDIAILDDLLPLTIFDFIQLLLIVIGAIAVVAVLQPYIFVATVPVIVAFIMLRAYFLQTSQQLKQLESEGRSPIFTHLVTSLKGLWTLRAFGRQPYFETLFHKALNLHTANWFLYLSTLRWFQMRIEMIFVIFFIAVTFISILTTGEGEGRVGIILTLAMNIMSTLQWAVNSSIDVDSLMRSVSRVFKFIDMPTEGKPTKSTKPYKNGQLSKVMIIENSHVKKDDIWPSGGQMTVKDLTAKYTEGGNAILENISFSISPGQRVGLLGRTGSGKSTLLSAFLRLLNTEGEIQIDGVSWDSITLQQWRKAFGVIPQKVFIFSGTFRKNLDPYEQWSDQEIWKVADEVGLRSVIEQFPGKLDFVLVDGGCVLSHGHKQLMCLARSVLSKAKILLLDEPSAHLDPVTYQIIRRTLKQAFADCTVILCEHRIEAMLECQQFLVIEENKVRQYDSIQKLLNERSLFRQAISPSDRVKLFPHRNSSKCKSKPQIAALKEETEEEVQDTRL

SMILES | % Activation [1] [%] | EC50 [2] [nM] | EC50 [nM]
CC(=O)N1CCC(COc2cc(C(=O)NS(C)(=O)=O)nc3c2c(C(C)C)nn3-c2ccc(F)cc2)CC1 [Compound 321, 4-[(1-acetylpiperidin-4-yl)methoxy]-1-(4-fluorophenyl)-N-(methanesulfonyl)-3-(propan-2-yl)-1H-pyrazolo[3,4-b]pyridine-6-carboxamide] | 314.37 | 497 | –
CC(C)c1nn(-c2ccc(F)cc2)c2nc(C(=O)NS(C)(=O)=O)cc(OCCOC3COC3)c12 [Compound 313, 1-(4-fluorophenyl)-N-(methanesulfonyl)-4-{2-[(oxetan-3-yl)oxy]ethoxy}-3-(propan-2-yl)-1H-pyrazolo[3,4-b]pyridine-6-carboxamide] | 319.75 | 1750 | –
CCS(=O)(=O)NC(=O)c1cc(-c2ccc(N3CCOCC3)cc2)c2c(C)nn(-c3ccccc3)c2n1 [Compound 5, N-(ethanesulfonyl)-3-methyl-4-[4-(morpholin-4-yl)phenyl]-1-phenyl-1H-pyrazolo[3,4-b]pyridine-6-carboxamide] | 362.75 | 372 | –
COCC(COC)Oc1cc(C(=O)NS(C)(=O)=O)nc2c1c(C(C)C)nn2-c1ccc(F)cc1 [Compound 311, 4-[(1,3-dimethoxypropan-2-yl)oxy]-1-(4-fluorophenyl)-N-(methanesulfonyl)-3-(propan-2-yl)-1H-pyrazolo[3,4-b]pyridine-6-carboxamide] | 241.35 | 1060 | –
O=C(NS(=O)(=O)N1CCC(N2CCOCC2)CC1)c1cc(OCC2CCOCC2)c2c(C3CCC3)nn(-c3ccccc3)c2n1 [Compound 359, 3-cyclobutyl-N-[4-(morpholin-4-yl)piperidine-1-sulfonyl]-4-[(oxan-4-yl)methoxy]-1-phenyl-1H-pyrazolo[3,4-b]pyridine-6-carboxamide] | 236.25 | 299 | –
CCS(=O)(=O)NC(=O)c1cc(N2CCC(N3CCCCC3)CC2)c2c(C3CCC3)nn(-c3ccccc3)c2n1 [Compound 427, 4-([1,4′-bipiperidin]-1′-yl)-3-cyclobutyl-N-(ethanesulfonyl)-1-phenyl-1H-pyrazolo[3,4-b]pyridine-6-carboxamide] | 419.5 | – | 162
COCC1CCN(c2cc(C(=O)NS(=O)(=O)CC#N)nc3c2c(C2CCC2)nn3-c2ccccc2)CC1 [Compound 364, N-(cyanomethanesulfonyl)-3-cyclobutyl-4-[4-(methoxymethyl)piperidin-1-yl]-1-phenyl-1H-pyrazolo[3,4-b]pyridine-6-carboxamide] | 575 | 553 | –
CCS(=O)(=O)NC(=O)c1cc(N2CCC(C(C)N3CCOCC3)CC2)c2c(C3CCC3)nn(-c3ccc(F)cc3)c2n1 (centres unmarked) [Compound 446, 3-cyclobutyl-N-(ethanesulfonyl)-1-(4-fluorophenyl)-4-{4-[1-(morpholin-4-yl)ethyl]piperidin-1-yl}-1H-pyrazolo[3,4-b]pyridine-6-carboxamide] | 669.9 | 77.4 | –
CC(C)c1nn(-c2ccc(F)cc2)c2nc(C(=O)NS(=O)(=O)N(C)C)cc(N3CCC(N4CCOCC4)CC3)c12 [Compound 412, N-(dimethylsulfamoyl)-1-(4-fluorophenyl)-4-[4-(morpholin-4-yl)piperidin-1-yl]-3-(propan-2-yl)-1H-pyrazolo[3,4-b]pyridine-6-carboxamide] | 436.4 | – | 201
CC(C)N1CCN(c2ccc(-c3cc(C(=O)NS(=O)(=O)N(C)C)nc4c3c(C3CCC3)nn4C3CCCCC3)cc2)CC1 [Compound 547, 3-cyclobutyl-1-cyclohexyl-N-(dimethylsulfamoyl)-4-{4-[4-(propan-2-yl)piperazin-1-yl]phenyl}-1H-pyrazolo[3,4-b]pyridine-6-carboxamide] | 372.95 | 349 | –
CC(C)c1nn(-c2ccc(F)cc2)c2nc(C(=O)NS(C)(=O)=O)cc(N3CCC(N4CCOCC4)CC3)c12 [Compound 411, 1-(4-fluorophenyl)-N-(methanesulfonyl)-4-[4-(morpholin-4-yl)piperidin-1-yl]-3-(propan-2-yl)-1H-pyrazolo[3,4-b]pyridine-6-carboxamide] | 505 | – | 478
CN1CCN(C(=O)C2CCN(S(=O)(=O)NC(=O)c3cc(OCC4CCOCC4)c4c(C5CCC5)nn(-c5ccccc5)c4n3)CC2)CC1 [Compound 360, 3-cyclobutyl-N-[4-(4-methylpiperazine-1-carbonyl)piperidine-1-sulfonyl]-4-[(oxan-4-yl)methoxy]-1-phenyl-1H-pyrazolo[3,4-b]pyridine-6-carboxamide] | 182.8 | 101 | –
COCCOCC1(F)CCN(c2cc(C(=O)NS(C)(=O)=O)nc3c2c(C(C)C)nn3-c2ccc(F)cc2)CC1 [Compound 343, 4-{4-fluoro-4-[(2-methoxyethoxy)methyl]piperidin-1-yl}-1-(4-fluorophenyl)-N-(methanesulfonyl)-3-(propan-2-yl)-1H-pyrazolo[3,4-b]pyridine-6-carboxamide] | 356.9 | 566 | –
CS(=O)(=O)NC(=O)c1cc(OCCCN2CCCCC2)c2c(C3CCC3)nn(-c3ccccc3)c2n1 [Compound 314, 3-cyclobutyl-N-(methanesulfonyl)-1-phenyl-4-[3-(piperidin-1-yl)propoxy]-1H-pyrazolo[3,4-b]pyridine-6-carboxamide] | 375.8 | 693 | –
C#CCCS(=O)(=O)NC(=O)c1cc(-c2ccc(N=[N+]=[N-])cc2)c2c(C(C)C)nn(-c3cccc(N(C)C)c3)c2n1 [Compound 363, 4-(4-azidophenyl)-N-(but-3-yne-1-sulfonyl)-1-[3-(dimethylamino)phenyl]-3-(propan-2-yl)-1H-pyrazolo[3,4-b]pyridine-6-carboxamide] | 415.8 | 116 | –
COCC1CCN(c2cc(C(=O)NS(=O)(=O)CCC(=O)O)nc3c2c(C2CCC2)nn3-c2ccccc2)CC1 [Compound 289, 3-({3-cyclobutyl-4-[4-(methoxymethyl)piperidin-1-yl]-1-phenyl-1H-pyrazolo[3,4-b]pyridine-6-carbonyl}sulfamoyl)propanoic Acid] | 366.4 | 3330 | –
CCOCC1(F)CCN(c2cc(C(=O)NS(C)(=O)=O)nc3c2c(C(C)C)nn3-c2ccc(F)cc2)CC1 [Compound 342, 4-[4-(ethoxymethyl)-4-fluoropiperidin-1-yl]-1-(4-fluorophenyl)-N-(methanesulfonyl)-3-(propan-2-yl)-1H-pyrazolo[3,4-b]pyridine-6-carboxamide] | 336.5 | 207 | –
CC(C)Oc1nn(C2CCCCC2)c2nc(C(=O)NS(=O)(=O)N(C)C)cc(-c3ccc(CN4CCCCC4)cc3)c12 [Compound 443, 1-cyclohexyl-N-(dimethylsulfamoyl)-4-{4-[(piperidin-1-yl)methyl]phenyl}-3-[(propan-2-yl)oxy]-1H-pyrazolo[3,4-b]pyridine-6-carboxamide] | 332.5 | 184 | –
O=C(NS(=O)(=O)C1CCOC1)c1cc(-c2ccc(CN3CCOCC3)cc2)c2c(OC3CCC3)nn(C3CCCCC3)c2n1 (centres unmarked) [Compound 467, 3-(cyclobutyloxy)-1-cyclohexyl-4-{4-[(morpholin-4-yl)methyl]phenyl}-N-(oxolane-3-sulfonyl)-1H-pyrazolo[3,4-b]pyridine-6-carboxamide] | 229.15 | 270 | –
